# In patent publication US5164388A, “Heterocyclic peptide renin inhibitors” (Abbott Laboratories, priority 1991, dated 1992):
# pIC50: −log10 of the molar value.
# Columns and labels:
# human renal renin = target: T1, human renal renin (Homo sapiens, UniProt P00797); experiment: Inhibition of human renal renin in vitro (angiotensin I formed, radioimmunoassay); format: biochemical; details: human angiotensinogen substrate, 37 degrees C., pH 6.0
# T1 construct: human renal renin, free from acid proteolytic activity; from tissue
# T1 sequence (P00797 67-406): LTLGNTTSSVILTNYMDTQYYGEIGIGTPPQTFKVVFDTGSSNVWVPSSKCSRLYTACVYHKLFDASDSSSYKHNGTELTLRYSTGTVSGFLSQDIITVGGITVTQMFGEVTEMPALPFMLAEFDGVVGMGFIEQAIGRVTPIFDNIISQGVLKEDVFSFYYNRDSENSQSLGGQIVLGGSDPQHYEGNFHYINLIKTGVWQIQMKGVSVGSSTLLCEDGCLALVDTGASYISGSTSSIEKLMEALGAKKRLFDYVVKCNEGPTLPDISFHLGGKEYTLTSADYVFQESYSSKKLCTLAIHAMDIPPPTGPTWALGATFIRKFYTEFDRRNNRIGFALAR
# Protocol: The novel compounds of the present invention are also useful for treating congestive heart failure. […] At the end of the incubation, the amount of angiotensin I formed is measured by radioimmunoassay and the molar concentration required to cause 50% inhibition, expressed as the IC50, is calculated.
# Plasma Renin Activity = experiment: Plasma renin activity in salt depleted monkeys following oral dosing; format: in vivo, cynomolgous monkeys; details: oral 3 mg/kg
# Protocol: (§1) The ability of the compounds of the invention to decrease blood pressure and plasma renin activity in vivo can be determined using the following method.
# (§2) Male cynomolgous monkeys housed under constant temperature and lighting conditions and weighing 3-5 kg were instrumented with chronic indwelling arterial and venous catheters. Following pretreatment by salt-depletion, the monkeys were dosed by nasogastric tube with 3 mg/kg of the compound of Example 152.
# [1] = Blood pressure in salt depleted monkeys following oral dosing; format: in vivo, cynomolgous monkeys; details: oral 3 mg/kg
# Protocol: as §1, §2
# [2] = Mean of three monkeys, time 0 min
# [3] = Mean of three monkeys, time 5 min
# [4] = Mean of three monkeys, time 15 min
# [5] = Mean of three monkeys, time 30 min
# [6] = Mean of three monkeys, time 60 min
# [7] = Mean of three monkeys, time 90 min
# [8] = Mean of three monkeys, time 120 min
# [9] = Mean of three monkeys, time 180 min
# [10] = Mean of three monkeys, time 360 min
structure (smiles),measurement,setting,value
CCCCNC(=O)[C@H](C[C@H](O)[C@H](CC1CCCCC1)NC(=O)C(Cc1cscn1)N1CCN(S(=O)(=O)N2CCN(C)CC2)[C@H](Cc2ccccc2)C1=O)C(C)C (stereo partly drawn) [Example 141],pIC50,human renal renin,8.82
"CCN1CC(C(O)C(CC2CCCCC2)NC(=O)C(Cc2nccn2C(=O)OC(C)(C)C)N2CCN(S(=O)(=O)N3CCN(C)CC3)C(Cc3ccccc3)C2=O)OC1=O [Example 142, 3-(3N-tert-butyloxycarbonyl-2-imidazolyl)-2-(3R-benzyl-4-N-(N-methylpiperazyl)-sulfonyl-2-keto-piperazin-1-yl)-propoionic acid Amide of (2'S,1'R,5S)-3-Ethyl-5-(1'-hydroxy-2'-amino-3'-cyclohexylpropyl)oxazolidin-2-one]",pIC50,human renal renin,8.30
"CCN1C[C@@H]([C@H](O)[C@H](CC2CCCCC2)NC(=O)C(Cc2ncc[nH]2)N2CCN(S(=O)(=O)N3CCN(C)CC3)[C@H](Cc3ccccc3)C2=O)OC1=O (stereo partly drawn) [Example 143, 3-(2-imidazolyl)-2-(3R-benzyl-4-N-(N-methylpiperazyl)-sulfonyl-2-keto-piperazin-1-yl)-propionic acid Amide of (2'S,1'R,5S)-3-Ethyl-5-(1'-hydroxy-2'-amino-3'-cyclohexylpropyl)oxazolidin-2-one]",pIC50,human renal renin,8.77
"CC(C)C[C@H](O)[C@H](O)[C@H](CC1CCCCC1)NC(=O)C(Cc1nccn1C(=O)OC(C)(C)C)N1CCN(S(=O)(=O)N2CCN(C)CC2)[C@H](Cc2ccccc2)C1=O (stereo partly drawn) [Example 144, 3-(3N-tert-butyloxycarbonyl-2-imidazolyl)-2-(3R-benzyl-4N-(N-methylpiperazyl)-sulfonyl-2-keto-piperazin-1-yl)-propionic acid Amide of 2(S)-Amino-1-cyclohexyl-3(R),4(S)-dihydroxy-6-methylheptane]",pIC50,human renal renin,8.18
CC(C)C[C@H](O)[C@H](O)[C@H](CC1CCCCC1)NC(=O)C(Cc1ncc[nH]1)N1CCN(S(=O)(=O)N2CCN(C)CC2)[C@H](Cc2ccccc2)C1=O (stereo partly drawn) [Example 145],pIC50,human renal renin,8.77
"C[C@@H]1CO[C@H]([C@H](O)[C@H](CC2CCCCC2)NC(=O)C(Cc2nccn2C(=O)OC(C)(C)C)N2CCN(S(=O)(=O)N3CCN(C)CC3)[C@H](Cc3ccccc3)C2=O)C1 (stereo partly drawn) [Example 146, 3-(3N-tert-butyloxycarbonyl-2-imidazolyl)-2-(3R-benzyl-4N-(N-methylpiperazyl)-sulfonyl-2-keto-piperazin-1-yl)-propionic acid Amide of 2(s)-(2(s)-Amino-3-cyclohexyl-1(R) hydroxy)propyl-4(S)-methyltetrahydrofuran]",pIC50,human renal renin,8.80
"CC(C)C[C@H](O)[C@H](O)[C@H](CC1CCCCC1)NC(=O)[C@H](Cc1cscn1)N1CCC[C@@](Cc2ccccc2)(NS(=O)(=O)N2CCN(C)CC2)C1=O [Example 151, (2S)-(3S)-((N-methylpiperazinsulfonyl)-amino-3-phenylmethyl-2-oxo-1-piperidinyl)-3-(4-thiazolyl) propionic acid amide of (2S.3R,4S)-2-amino-1-cyclohexyl-3,4-dihydroxy-6-methylheptane]",pIC50,human renal renin,9.49
"CC1COC(C(O)C(CC2CCCCC2)NC(=O)C(Cc2cscn2)N2CCCC(Cc3ccccc3)(NS(=O)(=O)N3CCN(C)CC3)C2=O)C1 [Example 152, (2S1-((3S)-((N-methylpiperazinsulfonyl)amino-3-phenylmethyl-2-oxo-1-piperidinyl)-3-(4-thiazolyl)propionic acid amide of (2S,4S,1'R,2'S)-2-(2'-amino-3'-cyclohexyl-1'-hydroxypropyl)-4-methyltetrahydrofuran]",Plasma Renin Activity (PRA),Plasma Renin Activity; [2],21.7 ng/mL/h
same,Plasma Renin Activity (PRA),Plasma Renin Activity; [3],0.8 ng/mL/h
same,Plasma Renin Activity (PRA),Plasma Renin Activity; [4],0.2 ng/mL/h
same,Plasma Renin Activity (PRA),Plasma Renin Activity; [5],0.0 ng/mL/h
same,Plasma Renin Activity (PRA),Plasma Renin Activity; [6],0.0 ng/mL/h
same,Plasma Renin Activity (PRA),Plasma Renin Activity; [7],0.0 ng/mL/h
same,Plasma Renin Activity (PRA),Plasma Renin Activity; [8],0.1 ng/mL/h
same,Plasma Renin Activity (PRA),Plasma Renin Activity; [9],0.1 ng/mL/h
same,Plasma Renin Activity (PRA),Plasma Renin Activity; [10],0.5 ng/mL/h
same,Plasma Renin Activity (PRA),"Plasma Renin Activity; Monkey 1, time 0 min",12.6 ng/mL/h
same,Plasma Renin Activity (PRA),"Plasma Renin Activity; Monkey 1, time 5 min",2.2 ng/mL/h
same,Plasma Renin Activity (PRA),"Plasma Renin Activity; Monkey 1, time 15 min",0.44 ng/mL/h
same,Plasma Renin Activity (PRA),"Plasma Renin Activity; Monkey 1, time 30 min",0.0 ng/mL/h
same,Plasma Renin Activity (PRA),"Plasma Renin Activity; Monkey 1, time 60 min",0.0 ng/mL/h
same,Plasma Renin Activity (PRA),"Plasma Renin Activity; Monkey 1, time 90 min",0.1 ng/mL/h
same,Plasma Renin Activity (PRA),"Plasma Renin Activity; Monkey 1, time 120 min",0.0 ng/mL/h
same,Plasma Renin Activity (PRA),"Plasma Renin Activity; Monkey 1, time 180 min",0.1 ng/mL/h
same,Plasma Renin Activity (PRA),"Plasma Renin Activity; Monkey 1, time 360 min",0.2 ng/mL/h
same,Plasma Renin Activity (PRA),"Plasma Renin Activity; Monkey 2, time 0 min",34.2 ng/mL/h
same,Plasma Renin Activity (PRA),"Plasma Renin Activity; Monkey 2, time 5 min",0.1 ng/mL/h
same,Plasma Renin Activity (PRA),"Plasma Renin Activity; Monkey 2, time 15 min",0.0 ng/mL/h
same,Plasma Renin Activity (PRA),"Plasma Renin Activity; Monkey 2, time 30 min",0.0 ng/mL/h
same,Plasma Renin Activity (PRA),"Plasma Renin Activity; Monkey 2, time 60 min",0.0 ng/mL/h
same,Plasma Renin Activity (PRA),"Plasma Renin Activity; Monkey 2, time 90 min",0.0 ng/mL/h
same,Plasma Renin Activity (PRA),"Plasma Renin Activity; Monkey 2, time 120 min",0.3 ng/mL/h
same,Plasma Renin Activity (PRA),"Plasma Renin Activity; Monkey 2, time 180 min",0.2 ng/mL/h
same,Plasma Renin Activity (PRA),"Plasma Renin Activity; Monkey 2, time 360 min",0.7 ng/mL/h
same,Plasma Renin Activity (PRA),"Plasma Renin Activity; Monkey 3, time 0 min",18.4 ng/mL/h
same,Plasma Renin Activity (PRA),"Plasma Renin Activity; Monkey 3, time 5 min",0.1 ng/mL/h
same,Plasma Renin Activity (PRA),"Plasma Renin Activity; Monkey 3, time 15 min",0.2 ng/mL/h
same,Plasma Renin Activity (PRA),"Plasma Renin Activity; Monkey 3, time 30 min",0.0 ng/mL/h
same,Plasma Renin Activity (PRA),"Plasma Renin Activity; Monkey 3, time 60 min",0.1 ng/mL/h
same,Plasma Renin Activity (PRA),"Plasma Renin Activity; Monkey 3, time 90 min",0.0 ng/mL/h
same,Plasma Renin Activity (PRA),"Plasma Renin Activity; Monkey 3, time 120 min",0.0 ng/mL/h
same,Plasma Renin Activity (PRA),"Plasma Renin Activity; Monkey 3, time 180 min",0.1 ng/mL/h
same,Plasma Renin Activity (PRA),"Plasma Renin Activity; Monkey 3, time 360 min",0.7 ng/mL/h
same,pIC50,human renal renin,9.26
same,Blood Pressure (BP),[1]; [2],86 mmHg
same,Blood Pressure (BP),[1]; [3],85 mmHg
same,Blood Pressure (BP),[1]; [4],79 mmHg
same,Blood Pressure (BP),[1]; [5],74 mmHg
same,Blood Pressure (BP),[1]; [6],73 mmHg
same,Blood Pressure (BP),[1]; [7],76 mmHg
same,Blood Pressure (BP),[1]; [8],77 mmHg
same,Blood Pressure (BP),[1]; [9],79 mmHg
same,Blood Pressure (BP),[1]; [10],83 mmHg
same,Blood Pressure (BP),"[1]; Monkey 1, time 0 min",75 mmHg
same,Blood Pressure (BP),"[1]; Monkey 1, time 5 min",75 mmHg
same,Blood Pressure (BP),"[1]; Monkey 1, time 15 min",75 mmHg
same,Blood Pressure (BP),"[1]; Monkey 1, time 30 min",71 mmHg
same,Blood Pressure (BP),"[1]; Monkey 1, time 60 min",70 mmHg
same,Blood Pressure (BP),"[1]; Monkey 1, time 90 min",74 mmHg
same,Blood Pressure (BP),"[1]; Monkey 1, time 120 min",68 mmHg
same,Blood Pressure (BP),"[1]; Monkey 1, time 180 min",72 mmHg
same,Blood Pressure (BP),"[1]; Monkey 1, time 360 min",72 mmHg
same,Blood Pressure (BP),"[1]; Monkey 2, time 0 min",105 mmHg
same,Blood Pressure (BP),"[1]; Monkey 2, time 5 min",99 mmHg
same,Blood Pressure (BP),"[1]; Monkey 2, time 15 min",92 mmHg
same,Blood Pressure (BP),"[1]; Monkey 2, time 30 min",82 mmHg
same,Blood Pressure (BP),"[1]; Monkey 2, time 60 min",85 mmHg
same,Blood Pressure (BP),"[1]; Monkey 2, time 90 min",85 mmHg
same,Blood Pressure (BP),"[1]; Monkey 2, time 120 min",80 mmHg
same,Blood Pressure (BP),"[1]; Monkey 2, time 180 min",92 mmHg
same,Blood Pressure (BP),"[1]; Monkey 2, time 360 min",93 mmHg
same,Blood Pressure (BP),"[1]; Monkey 3, time 0 min",77 mmHg
same,Blood Pressure (BP),"[1]; Monkey 3, time 5 min",82 mmHg
same,Blood Pressure (BP),"[1]; Monkey 3, time 15 min",69 mmHg
same,Blood Pressure (BP),"[1]; Monkey 3, time 30 min",69 mmHg
same,Blood Pressure (BP),"[1]; Monkey 3, time 60 min",65 mmHg
same,Blood Pressure (BP),"[1]; Monkey 3, time 90 min",70 mmHg
same,Blood Pressure (BP),"[1]; Monkey 3, time 120 min",82 mmHg
same,Blood Pressure (BP),"[1]; Monkey 3, time 180 min",72 mmHg
same,Blood Pressure (BP),"[1]; Monkey 3, time 360 min",84 mmHg
Cc1ccc(S(=O)(=O)N[C@]2(Cc3ccccc3)CCCN([C@@H](Cc3c[nH]cn3)C(=O)N[C@@H](CC3CCCCC3)[C@@H](O)[C@@H](O)CC(C)C)C2=O)cc1 [Example 156],pIC50,human renal renin,8.85
